Entries after “also recorded” stand apart in the source; their conditions may differ.
Test: Storage stability of venetoclax polymorphs, analyzed by PXRD for polymorph integrity
Type: physicochemical
Procedure: The present invention provides new polymorphs of venetoclax which may be characterized by powder X-ray diffraction (PXRD). Thus, samples of each disclosed polymorph were analyzed by PXRD on a BRUKER D-8 Discover powder diffractometer equipped with a goniometer of θ/2θ configuration and Lynx Eye detector. The Cu-anode X-ray tube was operated at 40 kV and 30 mA. The experiments were conducted over the […] of 2.0°-50.0°, 0.030° step size, and 0.4 seconds step time.
Thus, the stability of samples of amorphous venetoclax, as well as crystalline forms M9, M10, and M21 were stored at 40° C./75% relative humidity (RH) and at 25° C./60% relative humidity (RH) for 3 months. The samples were analyzed by PXRD for polymorph integrity.

Question: What does the source list for `CC1(C)CCC(CN2CCN(c3ccc(C(=O)NS(=O)(=O)c4ccc(NCC5CCOCC5)c([N+](=O)[O-])c4)c(Oc4cnc5[nH]ccc5c4)c3)CC2)=C(c2ccc(Cl)cc2)C1` [form M10, 4-[4-[[2-(4-chlorophenyl)-4,4-dimethylcyclohexen-1-yl]methyl]piperazin-1-yl]-N-[3-nitro-4-(oxan-4-ylmethylamino)phenyl]sulfonyl-2-(1H-pyrrolo[2,3-b]pyridin-5-yloxy)benzamide]?
Answer: PXRD (polymorph integrity) (at 25° C./60% RH, 3 months, listed as M10): no change in PXRD pattern; also recorded: Stable; PXRD (polymorph integrity) (at 25° C./60% RH, Initial, listed as M10): Crystalline; PXRD (polymorph integrity) (at 40° C./75% RH, 3 months, listed as M10): no change in PXRD pattern; also recorded: Stable; PXRD (polymorph integrity) (at 40° C./75% RH, Initial, listed as M10): Crystalline

Question: Which “PXRD (polymorph integrity)” value (at 25° C./60% RH, 3 months, listed as M9) does the source give for `CC1(C)CCC(CN2CCN(c3ccc(C(=O)NS(=O)(=O)c4ccc(NCC5CCOCC5)c([N+](=O)[O-])c4)c(Oc4cnc5[nH]ccc5c4)c3)CC2)=C(c2ccc(Cl)cc2)C1` [form M9, 4-[4-[[2-(4-chlorophenyl)-4,4-dimethylcyclohexen-1-yl]methyl]piperazin-1-yl]-N-[3-nitro-4-(oxan-4-ylmethylamino)phenyl]sulfonyl-2-(1H-pyrrolo[2,3-b]pyridin-5-yloxy)benzamide] here?
Answer: no change in PXRD pattern; also recorded: Stable

Question: What about the “PXRD (polymorph integrity)” value (at 25° C./60% RH, Initial, listed as M9) of the same molecule?
Answer: Crystalline

Question: What about the “PXRD (polymorph integrity)” value (at 40° C./75% RH, 3 months, listed as M9) of the same molecule?
Answer: no change in PXRD pattern; also recorded: Stable

Question: What about the “PXRD (polymorph integrity)” value (at 40° C./75% RH, Initial, listed as M9) of the same molecule?
Answer: Crystalline

Question: With `CC1(C)CCC(CN2CCN(c3ccc(C(=O)NS(=O)(=O)c4ccc(NCC5CCOCC5)c([N+](=O)[O-])c4)c(Oc4cnc5[nH]ccc5c4)c3)CC2)=C(c2ccc(Cl)cc2)C1` [form M21, 4-[4-[[2-(4-chlorophenyl)-4,4-dimethylcyclohexen-1-yl]methyl]piperazin-1-yl]-N-[3-nitro-4-(oxan-4-ylmethylamino)phenyl]sulfonyl-2-(1H-pyrrolo[2,3-b]pyridin-5-yloxy)benzamide] as the molecule, how does the “PXRD (polymorph integrity)” value (at 25° C./60% RH, 3 months, listed as M21) read?
Answer: no change in PXRD pattern; also recorded: Stable

Question: What about the “PXRD (polymorph integrity)” value (at 25° C./60% RH, Initial, listed as M21) of the same molecule?
Answer: Crystalline

Question: What about the “PXRD (polymorph integrity)” value (at 40° C./75% RH, 3 months, listed as M21) of the same molecule?
Answer: no change in PXRD pattern; also recorded: Stable

Question: And the “PXRD (polymorph integrity)” value (at 40° C./75% RH, Initial, listed as M21)?
Answer: Crystalline

Question: For `CC1(C)CCC(CN2CCN(c3ccc(C(=O)NS(=O)(=O)c4ccc(NCC5CCOCC5)c([N+](=O)[O-])c4)c(Oc4cnc5[nH]ccc5c4)c3)CC2)=C(c2ccc(Cl)cc2)C1` [Amorphous, 4-[4-[[2-(4-chlorophenyl)-4,4-dimethylcyclohexen-1-yl]methyl]piperazin-1-yl]-N-[3-nitro-4-(oxan-4-ylmethylamino)phenyl]sulfonyl-2-(1H-pyrrolo[2,3-b]pyridin-5-yloxy)benzamide], which “PXRD (polymorph integrity)” value (at 25° C./60% RH, 1 months) is on record?
Answer: Stable

Question: What about the “PXRD (polymorph integrity)” value (at 25° C./60% RH, 2 months) of the same molecule?
Answer: Stable

Question: And the “PXRD (polymorph integrity)” value (at 25° C./60% RH, 3 months)?
Answer: Stable

Question: And the “PXRD (polymorph integrity)” value (at 25° C./60% RH, 3 months, listed as amorphous venetoclax)?
Answer: no change in PXRD pattern

Question: What about the “PXRD (polymorph integrity)” value (at 25° C./60% RH, 15 days) of the same molecule?
Answer: Stable

Question: And the “PXRD (polymorph integrity)” value (at 25° C./60% RH, Initial)?
Answer: Amorphous

Question: What about the “PXRD (polymorph integrity)” value (at 40° C./75% RH, 1 months) of the same molecule?
Answer: Stable

Question: And the “PXRD (polymorph integrity)” value (at 40° C./75% RH, 2 months)?
Answer: Stable

Question: What about the “PXRD (polymorph integrity)” value (at 40° C./75% RH, 3 months) of the same molecule?
Answer: Stable

Question: What about the “PXRD (polymorph integrity)” value (at 40° C./75% RH, 3 months, listed as amorphous venetoclax) of the same molecule?
Answer: no change in PXRD pattern

Question: And the “PXRD (polymorph integrity)” value (at 40° C./75% RH, 15 days)?
Answer: Stable

Question: What about the “PXRD (polymorph integrity)” value (at 40° C./75% RH, Initial) of the same molecule?
Answer: Amorphous

From patent US10800777B2, “Polymorphic forms of VENCLEXTA” (Mylan Laboratories Limited, priority 2016, dated 2020)
